Data reported in ChEMBL document CHEMBL6109128, “Copper-KRAS-COX2 Axis: A Therapeutic Vulnerability in Pancreatic Cancer” (J Med Chem, 2025).
Active and inactive are the calls of the source. The calls are words filed in the database; no cut-off is given here.

Columns and labels:
HCT-116 = assay: Induction of apoptosis in human HCT-116 cells assessed as upregulation of cleaved PARP level measured for 48 hrs by Western blot analysis; assay type: functional, cell-based; conditions: dose 10.0 µM
[1] = Drug concentration in mouse plasma at 15 mg/kg, iv measured at 7 hrs; assay type: ADME, organism-based
[2] = Drug concentration in mouse plasma at 30 mg/kg, po measured at 24 hrs; assay type: ADME, organism-based
[3] = Drug concentration in mouse heart at 30 mg/kg, po measured at 24 hrs; assay type: ADME, organism-based; conditions: read-out: Ct
[4] = Drug concentration in mouse kidney at 15 mg/kg, iv measured at 7 hrs; assay type: ADME, organism-based; conditions: read-out: Ct
[5] = Drug concentration in mouse kidney at 15 mg/kg, iv measured at 24 hrs; assay type: ADME, organism-based; conditions: read-out: Ct
[6] = Drug concentration in mouse kidney at 30 mg/kg, po measured at 7 hrs; assay type: ADME, organism-based; conditions: read-out: Ct
[7] = Drug concentration in mouse kidney at 30 mg/kg, po measured at 24 hrs; assay type: ADME, organism-based; conditions: read-out: Ct
[8] = Drug concentration in mouse liver at 15 mg/kg, iv measured at 7 hrs; assay type: ADME, organism-based; conditions: read-out: Ct
[9] = Drug concentration in mouse liver at 15 mg/kg, iv measured at 24 hrs; assay type: ADME, organism-based; conditions: read-out: Ct
[10] = Drug concentration in mouse liver at 30 mg/kg, po measured at 7 hrs; assay type: ADME, organism-based; conditions: read-out: Ct
[11] = Drug concentration in mouse liver at 30 mg/kg, po measured at 24 hrs; assay type: ADME, organism-based; conditions: read-out: Ct
[12] = Toxicity in BALB/c mouse assessed as maximum tolerated dose at IV measured for 7 days; conditions: in vivo, time 7 day
CT26 [13] = assay: Antitumor activity against mouse CT26 cells implanted in BALB/c mouse assessed as increase in cleaved PARP level at 140 mg/kg, po administered for 3 days; assay type: functional, organism-based; conditions: time 3.0 day
CT26 [14] = assay: Antitumor activity against mouse CT26 cells implanted in BALB/c mouse assessed as increase in cleaved PARP level at 140 mg/kg, iv administered for 3 days; assay type: functional, organism-based; conditions: time 3.0 day
[15] = Toxicity in BALB/c mouse assessed as liver damage at 20 mg/kg, po measured after 29 days by H and E staining based analysis; assay type: organism-based; conditions: in vivo, 696 h, time 29 day
[16] = Toxicity in BALB/c mouse assessed as kidney damage at 20 mg/kg, po measured after 29 days by H and E staining based analysis; assay type: organism-based; conditions: in vivo, 696 h, time 29 day
[17] = Toxicity in BALB/c mouse assessed as spleen damage at 20 mg/kg, po measured after 29 days by H and E staining based analysis; assay type: organism-based; conditions: in vivo, 696 h, time 29 day
[18] = Toxicity in BALB/c mouse assessed as lung damage at 20 mg/kg, po measured after 29 days by H and E staining based analysis; assay type: organism-based; conditions: in vivo, 696 h, time 29 day
[19] = Toxicity in BALB/c mouse assessed as stomach damage at 20 mg/kg, po measured after 29 days by H and E staining based analysis; assay type: organism-based; conditions: in vivo, 696 h, time 29 day
[20] = Toxicity in BALB/c mouse assessed as pancrease damage at 20 mg/kg, po measured after 29 days by H and E staining based analysis; assay type: organism-based; conditions: in vivo, 696 h, time 29 day
Panc02 = assay: Antitumor activity against mouse Panc02 cells xenografted in C57BL/6 mouse assessed as tumor growth inhibition at 20 to 40 mg/kg, ip measured for 21 to 28 days; assay type: functional, organism-based; conditions: dose 20-40 mg/kg, time 21-28 day
CT26 [21] = assay: Antitumor activity against mouse CT26 cells implanted in BALB/c mouse assessed as inhibition of tumor growth at 100 mg/kg, po measured after 14 days; assay type: functional, organism-based; conditions: time 14.0 day
CT26 [22] = assay: Antitumor activity against mouse CT26 cells implanted in BALB/c mouse assessed as increase in cleaved PARP level at 50 mg/kg, po measured after 14 days; assay type: functional, organism-based; conditions: time 14.0 day
CT26 [23] = assay: Antitumor activity against mouse CT26 cells implanted in BALB/c mouse assessed as increase in cleaved caspase-3 level at 50 mg/kg, po measured after 14 days; assay type: functional, organism-based; conditions: time 14.0 day
KPC2 = assay: Antitumor activity against mouse KPC2 cells implanted in FVB mouse assessed as reduction in tumor burden at 25 mg/kg, po measured after 14 days; assay type: functional, organism-based; conditions: time 14.0 day
CT26 [24] = assay: Antitumor activity against mouse CT26 cells implanted in BALB/c mouse assessed as tumor growth inhibition at 50 to 100 mg/kg, po administered for 14 days in presence of celecoxib; assay type: functional, organism-based; conditions: dose 50-100 mg/kg, time 14.0 day

N[C@@H]1[C@H]2CN(c3cnc(C(=O)Nc4cc(F)cc5cccnc45)cn3)C[C@@H]12
Activity (HCT-116): Dose-dependent-effect
concentration at 7 h [1]: 98 ng/mL
concentration at 24 h [2]: 7 ng/mL
concentration at 24 h [3]: 57 ng/g
concentration at 7 h [4]: 2690 ng/g
concentration at 24 h [5]: 53 ng/g
concentration at 7 h [6]: 6100 ng/g
concentration at 24 h [7]: 137 ng/g
concentration at 7 h [8]: 2140 ng/g
concentration at 24 h [9]: 48 ng/g
concentration at 7 h [10]: 5530 ng/g
concentration at 24 h [11]: 92 ng/g
MTD at 168 h [12]: 140 mg/kg
Activity (CT26 [13]): Active
Activity (CT26 [14]): Active
Activity [15]: Non-toxic
Activity [16]: Non-toxic
Activity [17]: Non-toxic
Activity [18]: Non-toxic
Activity [19]: Non-toxic
Activity [20]: Non-toxic
TGI (Panc02): Active
TGI (CT26 [21]): Active
Activity (CT26 [22]): Active
Activity (CT26 [23]): Active
Activity (KPC2): Active
TGI (CT26 [24]): Active
